Activity calls are given as the source filed them. No cut-off for these calls is given here.
Assays:
Format in all cases: nucleic-acid assay
[1] = test system: Nucleic Acid; assay: Binding affinity to 3'-r(CUUCCAGUUUCAUAGAGA)-5' RNA assessed as change in melting temperature by spectrophotometry
[2] = test system: Nucleic Acid; assay: Binding affinity to 3'-r(CUUCCAGUUGCAUAGAGA)-5' RNA assessed as change in melting temperature by spectrophotometry
[3] = test system: Nucleic Acid; assay: Binding affinity to 3'-r(CUUCCAGUUACAUAGAGA)-5' RNA assessed as change in melting temperature by spectrophotometry
[4] = test system: Nucleic Acid; assay: Binding affinity to 3'-r(CUUCCAGUUGCAUAGAGA)-5' RNA assessed as fluorescence quenching by spectrophotometry
[5] = test system: Nucleic Acid; assay: Binding affinity to 3'-r(CUUCCAGUUUCAUAGAGA)-5' RNA assessed as fluorescence quenching by spectrophotometry
[6] = test system: Nucleic Acid; assay: Binding affinity to 3'-r(CUUCCAGUUCCAUAGAGA)-5' RNA assessed as fluorescence quenching by spectrophotometry
[7] = test system: Nucleic Acid; assay: Binding affinity to 3'-r(CUUCCAGUUCCAUAGAGA)-5' RNA assessed as change in melting temperature by spectrophotometry
[8] = test system: Nucleic Acid; assay: Binding affinity to 3'-r(CUUCCAGUUACAUAGAGA)-5' RNA assessed as fluorescence quenching by spectrophotometry

SMILES | ΔTm [1] [°C] | ΔTm [2] [°C] | ΔTm [3] [°C] | Activity [4] | Activity [5] | Activity [6] | Activity [7] | Activity [8] | Activity [1] | ΔTm [7] [°C] | Activity [2]
Cc1cn([C@H]2C[C@H](OP(=O)(O)OC[C@H]3O[C@@H](n4ccc(N)nc4=O)C[C@@H]3OP(=O)(O)OC[C@H]3O[C@@H](n4cnc5c(N)ncnc54)C[C@@H]3OP(=O)(O)OC[C@H]3O[C@@H](n4cnc5c(N)ncnc54)C[C@@H]3OP(=O)(O)OC[C@H]3O[C@@H](n4cnc5c(=O)[nH]c(N)nc54)C[C@@H]3OP(=O)(O)OC[C@H](Cn3cnc4cc5c(N)nc(N)nc5nc43)OP(=O)(O)OC[C@H]3O[C@@H](n4cnc5c(=O)[nH]c(N)nc54)C[C@@H]3OP(=O)(O)CC[C@H]3O[C@@H](n4cc(C)c(=O)[nH]c4=O)C[C@@H]3OP(=O)(O)OC[C@H]3O[C@@H](n4cnc5c(N)ncnc54)C[C@@H]3OP(=O)(O)OC[C@H]3O[C@@H](n4cc(C)c(=O)[nH]c4=O)C[C@@H]3OP(=O)(O)OC[C@H]3O[C@@H](n4ccc(N)nc4=O)C[C@@H]3OP(=O)(O)OC[C@H]3O[C@@H](n4cc(C)c(=O)[nH]c4=O)C[C@@H]3OP(=O)(O)OC[C@H]3O[C@@H](n4ccc(N)nc4=O)C[C@@H]3OP(=O)(O)OC[C@H]3O[C@@H](n4cc(C)c(=O)[nH]c4=O)C[C@@H]3O)[C@@H](COP(=O)(O)O[C@H]3C[C@H](n4cnc5c(=O)[nH]c(N)nc54)O[C@@H]3COP(=O)(O)O[C@H]3C[C@H](n4cnc5c(=O)[nH]c(N)nc54)O[C@@H]3COP(=O)(O)O[C@H]3C[C@H](n4cnc5c(N)ncnc54)O[C@@H]3COP(=O)(O)O[C@H]3C[C@H](n4cnc5c(N)ncnc54)O[C@@H]3COP(=O)(O)O[C@H]3C[C@H](n4cnc5c(=O)[nH]c(N)nc54)O[C@@H]3CO)O2)c(=O)nc1N | -2.9 | -3 | -3.1 | Active | Active | inactive | inactive | Active |  |  | 
Cc1cn([C@H]2C[C@H](OP(=O)(O)OC[C@H]3O[C@@H](n4ccc(N)nc4=O)C[C@@H]3OP(=O)(O)OC[C@H]3O[C@@H](n4cnc5c(N)ncnc54)C[C@@H]3OP(=O)(O)OC[C@H]3O[C@@H](n4cnc5c(N)ncnc54)C[C@@H]3OP(=O)(O)OC[C@H]3O[C@@H](n4cnc5c(N)ncnc54)C[C@@H]3OP(=O)(O)OC[C@H](Cn3cnc4cc5c(N)nc(N)nc5nc43)OP(=O)(O)OC[C@H]3O[C@@H](n4cnc5c(=O)[nH]c(N)nc54)C[C@@H]3OP(=O)(O)CC[C@H]3O[C@@H](n4cc(C)c(=O)[nH]c4=O)C[C@@H]3OP(=O)(O)OC[C@H]3O[C@@H](n4cnc5c(N)ncnc54)C[C@@H]3OP(=O)(O)OC[C@H]3O[C@@H](n4cc(C)c(=O)[nH]c4=O)C[C@@H]3OP(=O)(O)OC[C@H]3O[C@@H](n4ccc(N)nc4=O)C[C@@H]3OP(=O)(O)OC[C@H]3O[C@@H](n4cc(C)c(=O)[nH]c4=O)C[C@@H]3OP(=O)(O)OC[C@H]3O[C@@H](n4ccc(N)nc4=O)C[C@@H]3OP(=O)(O)OC[C@H]3O[C@@H](n4cc(C)c(=O)[nH]c4=O)C[C@@H]3O)[C@@H](COP(=O)(O)O[C@H]3C[C@H](n4cnc5c(=O)[nH]c(N)nc54)O[C@@H]3COP(=O)(O)O[C@H]3C[C@H](n4cnc5c(=O)[nH]c(N)nc54)O[C@@H]3COP(=O)(O)O[C@H]3C[C@H](n4cnc5c(N)ncnc54)O[C@@H]3COP(=O)(O)O[C@H]3C[C@H](n4cnc5c(N)ncnc54)O[C@@H]3COP(=O)(O)O[C@H]3C[C@H](n4cnc5c(=O)[nH]c(N)nc54)O[C@@H]3CO)O2)c(=O)nc1N |  | -2.1 | -2.3 | Active | inactive | Active |  | Active | inactive | -2 | 
Cc1cn([C@H]2C[C@H](OP(=O)(O)OC[C@H]3O[C@@H](n4ccc(N)nc4=O)C[C@@H]3OP(=O)(O)OC[C@H]3O[C@@H](n4cnc5c(N)ncnc54)C[C@@H]3OP(=O)(O)OC[C@H]3O[C@@H](n4cnc5c(N)ncnc54)C[C@@H]3OP(=O)(O)OC[C@H](Cn3cnc4cc5c(N)nc(N)nc5nc43)OP(=O)(O)OC[C@H]3O[C@@H](n4ccc(N)nc4=O)C[C@@H]3OP(=O)(O)OC[C@H]3O[C@@H](n4cnc5c(=O)[nH]c(N)nc54)C[C@@H]3OP(=O)(O)CC[C@H]3O[C@@H](n4cc(C)c(=O)[nH]c4=O)C[C@@H]3OP(=O)(O)OC[C@H]3O[C@@H](n4cnc5c(N)ncnc54)C[C@@H]3OP(=O)(O)OC[C@H]3O[C@@H](n4cc(C)c(=O)[nH]c4=O)C[C@@H]3OP(=O)(O)OC[C@H]3O[C@@H](n4ccc(N)nc4=O)C[C@@H]3OP(=O)(O)OC[C@H]3O[C@@H](n4cc(C)c(=O)[nH]c4=O)C[C@@H]3OP(=O)(O)OC[C@H]3O[C@@H](n4ccc(N)nc4=O)C[C@@H]3OP(=O)(O)OC[C@H]3O[C@@H](n4cc(C)c(=O)[nH]c4=O)C[C@@H]3O)[C@@H](COP(=O)(O)O[C@H]3C[C@H](n4cnc5c(=O)[nH]c(N)nc54)O[C@@H]3COP(=O)(O)O[C@H]3C[C@H](n4cnc5c(=O)[nH]c(N)nc54)O[C@@H]3COP(=O)(O)O[C@H]3C[C@H](n4cnc5c(N)ncnc54)O[C@@H]3COP(=O)(O)O[C@H]3C[C@H](n4cnc5c(N)ncnc54)O[C@@H]3COP(=O)(O)O[C@H]3C[C@H](n4cnc5c(=O)[nH]c(N)nc54)O[C@@H]3CO)O2)c(=O)nc1N | -5.4 |  | -6 | inactive | Active | Active |  | Active |  | -6.5 | inactive
Cc1cn([C@H]2C[C@H](OP(=O)(O)OC[C@H]3O[C@@H](n4ccc(N)nc4=O)C[C@@H]3OP(=O)(O)OC[C@H]3O[C@@H](n4cnc5c(N)ncnc54)C[C@@H]3OP(=O)(O)OC[C@H]3O[C@@H](n4cnc5c(N)ncnc54)C[C@@H]3OP(=O)(O)OC[C@H](Cn3cnc4cc5c(N)nc(N)nc5nc43)OP(=O)(O)OC[C@H]3O[C@@H](n4cnc5c(=O)[nH]c(N)nc54)C[C@@H]3OP(=O)(O)OC[C@H]3O[C@@H](n4cnc5c(=O)[nH]c(N)nc54)C[C@@H]3OP(=O)(O)CC[C@H]3O[C@@H](n4cc(C)c(=O)[nH]c4=O)C[C@@H]3OP(=O)(O)OC[C@H]3O[C@@H](n4cnc5c(N)ncnc54)C[C@@H]3OP(=O)(O)OC[C@H]3O[C@@H](n4cc(C)c(=O)[nH]c4=O)C[C@@H]3OP(=O)(O)OC[C@H]3O[C@@H](n4ccc(N)nc4=O)C[C@@H]3OP(=O)(O)OC[C@H]3O[C@@H](n4cc(C)c(=O)[nH]c4=O)C[C@@H]3OP(=O)(O)OC[C@H]3O[C@@H](n4ccc(N)nc4=O)C[C@@H]3OP(=O)(O)OC[C@H]3O[C@@H](n4cc(C)c(=O)[nH]c4=O)C[C@@H]3O)[C@@H](COP(=O)(O)O[C@H]3C[C@H](n4cnc5c(=O)[nH]c(N)nc54)O[C@@H]3COP(=O)(O)O[C@H]3C[C@H](n4cnc5c(=O)[nH]c(N)nc54)O[C@@H]3COP(=O)(O)O[C@H]3C[C@H](n4cnc5c(N)ncnc54)O[C@@H]3COP(=O)(O)O[C@H]3C[C@H](n4cnc5c(N)ncnc54)O[C@@H]3COP(=O)(O)O[C@H]3C[C@H](n4cnc5c(=O)[nH]c(N)nc54)O[C@@H]3CO)O2)c(=O)nc1N | -4.6 | -4.3 | -5.9 | Active | Active | inactive | inactive | Active |  |  | 
Cc1cn([C@H]2C[C@H](OP(=O)(O)OC[C@H]3O[C@@H](n4ccc(N)nc4=O)C[C@@H]3OP(=O)(O)OC[C@H]3O[C@@H](n4cnc5c(N)ncnc54)C[C@@H]3OP(=O)(O)OC[C@H]3O[C@@H](n4cnc5c(N)ncnc54)C[C@@H]3OP(=O)(O)OC[C@H]3O[C@@H](n4ccc(N)nc4=O)C[C@@H]3OP(=O)(O)OC[C@H](Cn3cnc4cc5c(N)nc(N)nc5nc43)OP(=O)(O)OC[C@H]3O[C@@H](n4cnc5c(=O)[nH]c(N)nc54)C[C@@H]3OP(=O)(O)CC[C@H]3O[C@@H](n4cc(C)c(=O)[nH]c4=O)C[C@@H]3OP(=O)(O)OC[C@H]3O[C@@H](n4cnc5c(N)ncnc54)C[C@@H]3OP(=O)(O)OC[C@H]3O[C@@H](n4cc(C)c(=O)[nH]c4=O)C[C@@H]3OP(=O)(O)OC[C@H]3O[C@@H](n4ccc(N)nc4=O)C[C@@H]3OP(=O)(O)OC[C@H]3O[C@@H](n4cc(C)c(=O)[nH]c4=O)C[C@@H]3OP(=O)(O)OC[C@H]3O[C@@H](n4ccc(N)nc4=O)C[C@@H]3OP(=O)(O)OC[C@H]3O[C@@H](n4cc(C)c(=O)[nH]c4=O)C[C@@H]3O)[C@@H](COP(=O)(O)O[C@H]3C[C@H](n4cnc5c(=O)[nH]c(N)nc54)O[C@@H]3COP(=O)(O)O[C@H]3C[C@H](n4cnc5c(=O)[nH]c(N)nc54)O[C@@H]3COP(=O)(O)O[C@H]3C[C@H](n4cnc5c(N)ncnc54)O[C@@H]3COP(=O)(O)O[C@H]3C[C@H](n4cnc5c(N)ncnc54)O[C@@H]3COP(=O)(O)O[C@H]3C[C@H](n4cnc5c(=O)[nH]c(N)nc54)O[C@@H]3CO)O2)c(=O)nc1N | -1.1 |  | -3.9 | inactive | Active | Active |  | Active |  | -3.2 | inactive
